Source: patent US20030045548A1, “Polymorphic forms of 6-[4-(1-cyclohexyl-1H-tetrazol-5-YL)butoxy]-3,4-dihydro-2(1H)-quinolinone” (priority 2001, published 2003)

What was measured:
[1] = aqueous solubility of cilostazol polymorphic forms; format: physicochemical
[2] = stability of the polymorphic form; format: physicochemical; settings: statement in summary, no conditions given
[3] = bioavailability of cilostazol Form A; format: in vivo; settings: Form A as prepared by the procedures of the '479 patent

| Structure (SMILES) | solubility relative to Form A ([1]; inferred from lower DSC melting point (FIG. 8), no solubility measurement) | stability of the form [2] | aqueous solubility ([1]; Form A as prepared by the procedures of the '479 patent) | bioavailability [3] |
| --- | --- | --- | --- | --- |
| O=C1CCc2cc(OCCCCc3nnnn3C3CCCCC3)ccc2N1 [Form B, 6-[4-(1-cyclohexyl-1H-tetrazol-5-yl)butoxy]-3,4-dihydro-2(1H)-quinolinone] | more soluble than Form A | stable |  |  |
| O=C1CCc2cc(OCCCCc3nnnn3C3CCCCC3)ccc2N1 [Form A, 6-[4-(1-cyclohexyl-1H-tetrazol-5-yl)butoxy]-3,4-dihydro-2(1H)-quinolinone] |  |  | low aqueous solubility | low bioavailability |
